Counter-ions that a name gives are not always drawn.
How the values were obtained:
[1] = biological target: T1, TXA2 synthetase (Oryctolagus cuniculus, UniProt G1TAZ9); assay: Inhibition of Thromboxane A2 Synthetase (rabbit platelet microsomes); assay type: biochemical; conditions: 0.1 mM [14C] arachidonic acid, 1 minute, 22° C., compounds as hydrochloride except No. 40 (free base)
T1 construct: The platelet microsome fraction was separated from rabbit and from human blood; from tissue; host or cells: rabbit blood platelets, microsome fraction
T1 sequence (G1TAZ9 1-530): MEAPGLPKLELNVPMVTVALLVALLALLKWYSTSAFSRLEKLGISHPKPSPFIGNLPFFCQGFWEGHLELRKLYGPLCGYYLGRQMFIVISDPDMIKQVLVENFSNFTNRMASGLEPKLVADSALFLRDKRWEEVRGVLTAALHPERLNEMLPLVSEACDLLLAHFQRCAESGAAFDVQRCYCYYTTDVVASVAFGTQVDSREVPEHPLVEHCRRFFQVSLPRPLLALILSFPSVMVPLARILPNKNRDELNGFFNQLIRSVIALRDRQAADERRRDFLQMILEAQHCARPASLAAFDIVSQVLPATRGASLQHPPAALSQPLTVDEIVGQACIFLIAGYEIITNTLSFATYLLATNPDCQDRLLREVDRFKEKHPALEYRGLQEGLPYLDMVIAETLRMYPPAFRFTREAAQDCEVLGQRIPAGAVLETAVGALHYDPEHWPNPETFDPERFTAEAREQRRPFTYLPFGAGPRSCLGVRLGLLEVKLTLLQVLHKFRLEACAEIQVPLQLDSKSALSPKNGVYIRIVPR
Method: The platelet microsome fraction was separated from rabbit and from human blood by the method of Needleman et al. [Needleman et al., Science, 193, 163 (1976)]. The microsomal TXA2 synthetase activity in the presence of various of the compounds of the invention at various concentrations was assayed by a modification of the method of […] et al. [[…] et al., Prostaglandins, 21, 543 (1981)] by incubating the microsome fractions with labelled 1-[^14 C] arachidonic acid at a concentration of 0.1 mM for 1 minute at 22° C., to a final volume of 0.2 ml. The reaction was terminated by the addition of […] of 0.2M citric acid, and then the mixture was extracted with 1.5 ml of ethyl acetate. […] The developing solvent for the chromatography was a 90:8:1:0.8 by volume mixture of chloroform, methanol, acetic acid and water. […] The results are shown in the following Table as the IC50, i.e. the concentration required to inhibit the activity of thromboxane synthetase by 50%. […] The compounds of the invention are identified in the following Tables by the numbers heretofore assigned to them. All compounds were employed in the form of the hydrochloride, except Compound No. 40, which was employed as the free base. The results using rabbit platelet microsomes are given in Table 4, whilst the results using human platelet microsomes are given in Table 5.

[2] = biological target: T2, TXA2 synthetase (Homo sapiens, UniProt P24557); assay: Inhibition of Thromboxane A2 Synthetase (human platelet microsomes); assay type: biochemical; conditions: 0.1 mM [14C] arachidonic acid, 1 minute, 22° C., compounds as hydrochloride
T2 construct: The platelet microsome fraction was separated from rabbit and from human blood; from tissue; host or cells: human blood platelets, microsome fraction
T2 sequence (P24557 1-533): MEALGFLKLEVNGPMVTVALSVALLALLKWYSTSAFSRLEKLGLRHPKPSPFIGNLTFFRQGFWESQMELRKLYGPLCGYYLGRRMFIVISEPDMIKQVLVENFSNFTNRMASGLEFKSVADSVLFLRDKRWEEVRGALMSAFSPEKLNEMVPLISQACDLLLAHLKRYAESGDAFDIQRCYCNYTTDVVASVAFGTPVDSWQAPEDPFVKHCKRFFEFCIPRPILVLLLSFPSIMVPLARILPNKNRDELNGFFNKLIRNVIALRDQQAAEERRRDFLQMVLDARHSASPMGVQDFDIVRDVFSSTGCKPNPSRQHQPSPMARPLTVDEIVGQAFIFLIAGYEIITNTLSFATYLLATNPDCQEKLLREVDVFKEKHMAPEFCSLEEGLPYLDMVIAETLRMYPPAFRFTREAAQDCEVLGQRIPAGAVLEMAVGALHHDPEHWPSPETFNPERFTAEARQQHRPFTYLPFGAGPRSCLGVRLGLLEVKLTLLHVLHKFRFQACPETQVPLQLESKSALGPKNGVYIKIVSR
Method: The platelet microsome fraction was separated from rabbit and from human blood by the method of Needleman et al. [Needleman et al., Science, 193, 163 (1976)]. The microsomal TXA2 synthetase activity in the presence of various of the compounds of the invention at various concentrations was assayed by a modification of the method of […] et al. [[…] et al., Prostaglandins, 21, 543 (1981)] by incubating the microsome fractions with labelled 1-[^14 C] arachidonic acid at a concentration of 0.1 mM for 1 minute at 22° C., to a final volume of 0.2 ml. The reaction was terminated by the addition of […] of 0.2M citric acid, and then the mixture was extracted with 1.5 ml of ethyl acetate. […] The developing solvent for the chromatography was a 90:8:1:0.8 by volume mixture of chloroform, methanol, acetic acid and water.

[3] = test system: synthesis of TXA2; conditions: in words; Prostaglandins, 13, 611 (1977); cited from earlier work
[4] = test system: pulmonary thromboembolisms caused by the intravenous injection of arachidonic acid; assay: Antithrombotic Activity in Rabbits (arachidonic acid i.v. sudden death); assay type: in vivo, male Japanese white rabbits; conditions: Oryctolagus cuniculus; oral, 1 hour before 1.3 mg/kg i.v. arachidonic acid; sudden deaths; Probit's method
Method: This test was carried out by a modification of the method of Silver et al. [Science, 183, 1085 (1974)]. The test animals used were male Japanese white rabbits of approximately 3 kg bodyweight.
Each group of rabbits was administered orally the test compound at an appropriate dose and then, one hour after the oral administration, each was given 1.3 mg/kg or arachidonic acid by intravenous injection. The test animals were observed and sudden deaths during the test period were recorded. The ED50 was determined by Probit's method.
Unmedicated rabbits were employed as a control, without administering any test compound, but these were all dead within several minutes after the injection of arachidonic acid, as a result of pulmonary thromboembolisms.

Row | IC50 [1] [nM] | SMILES | also measured
1 | 71 | O=C(O)c1ccc(SC(Cn2ccnc2)c2ccccc2)cc1 (stereo not drawn) [Compound 40, 4-[1-Phenyl-2-(imidazol-1-yl)ethylthio]benzoic acid] | 
2 | 67 | Cc1ccccc1C(Cn1ccnc1)Sc1ccc(C(=O)O)cc1 (stereo not drawn) [Compound 58, 4-[1-(2-Methylphenyl)-2-(imidazol-1-yl)ethylthio]benzoic acid hydrochloride] | IC50 [2]: 52 nM
3 | 69 | Cc1cc(C)c(C(Cn2ccnc2)Sc2ccc(C(=O)O)cc2)c(C)c1 (stereo not drawn) [Compound 62, 4-[1-(2,4,6-Trimethylphenyl)-2-(imidazol-1-yl)ethylthio]benzoic acid hydrochloride] | 
4 | 81 | O=C(O)c1ccc(SC(Cn2ccnc2)c2ccccc2Cl)cc1 (stereo not drawn) [Compound 49, 4-[1-(2-Chlorophenyl)-2-(imidazol-1-yl)ethylthio]benzoic acid hydrochloride] | 
5 | 57 | COc1cccc(OC)c1C(Cn1ccnc1)Sc1ccc(C(=O)O)cc1 (stereo not drawn) [Compound 79, 4-[1-(2,6-Dimethoxyphenyl)-2-imidazol-1-yl)ethylthio]benzoic acid hydrochloride] | 
6 | 47 | O=C(O)c1ccc(SC(Cn2ccnc2)c2ccc(Cl)cc2Cl)cc1 (stereo not drawn) [Compound 44, 4-[1-(2,4-Dichlorophenyl)-2-(imidazol-1-yl)ethylthio]-benzoic acid hydrochloride] | 

Second part, the compound before the results:

Row | SMILES | IC50 [1] [nM] | also measured
7 | COc1cc(OC)c(C(Cn2ccnc2)Sc2ccc(C(=O)O)cc2)c(OC)c1 (stereo not drawn) [Compound 84, 4-[1-(2,4,6-Trimethoxyphenyl)-2-(imidazol-1-yl)ethylthio]benzoic acid hydrochloride] | 33 | 
8 | COc1ccc(C(Cn2ccnc2)Sc2ccc(C(=O)O)cc2)c(OC)c1 (stereo not drawn) [Compound 74, 4-[1-(2,4-Dimethoxyphenyl)-2-(imidazol-1-yl)ethylthio]benzoic acid hydrochloride] | 40 | 
9 | c1c[nH]cn1 [imidazole] |  | inhibitory effect on the synthesis of TXA2 [3]: some inhibitory effect
10 | Cl.O=C(O)c1ccc(OCCn2ccnc2)cc1 [Dazoxiben, 4-[2-(1-imidazolyl)ethoxy]benzoic acid hydrochloride, reference compound] |  | ED50 [4]: 1.1 mg/kg
11 | COc1ccccc1C(Cn1ccnc1)Sc1ccc(C(=O)O)cc1.Cl (stereo not drawn) [Compound 70, 4-[1-(2-Methoxyphenyl)-2-(imidazol-1-yl)ethylthio]benzoic acid hydrochloride] | 59 | IC50 [2]: 73 nM; ED50 [4]: 0.13 mg/kg
12 | Cn1ccnc1 [1-methylimidazole] |  | inhibitory effect on the synthesis of TXA2 [3]: some inhibitory effect
